Data set [1] has as its system spores of Enteromorpha prolifera and Ulva pertusa. Kind of data set: prevention of the attachment of fouling algae (summary).
Description: The effect of the extracts on the prevention of the attachment of fouling algae was tested using the spores of Enteromorpha prolifera and Ulva pertusa, which are typical fouling algae.
Data set [2] is described as follows: safety test, oral and transdermal toxicity in rabbits. To be noted: rabbit, in vivo.
The next data set relates to Enteromorpha spores. Nature of the data set: inhibitory activity test against the mobility of Enteromorpha spores. Type of data set: cell-based. Conditions: Brassica extracts and fractions, comparison within the set. The text has this:
In order to investigate inhibitory substances against the mobility of Enteromorpha spores from extracts of Citrus sp., organic solvent fractions were made.
In order to investigate inhibitory substances against the mobility of Enteromorpha spores from extracts of brassica, organic solvent fractions were made.

The next data set has as its system mice. Nature of the data set: safety test, 10 mg/kg to mice, 7 days observation. The format is in vivo. Conditions: 10 mg/kg in DMSO/water, 10 mice per group, observed for 7 days.
For the next data set, the system named is Staphylococcus aureus. Nature of the data set: minimum inhibitory concentration, two-fold serial dilution in nutrient broth. To be noted: 30° C., 48 hours. Type of data set: cell-based. The text has this: (§1) A liquid medium obtained by diluting PAGS by two-fold serial dilution was placed on a 96-multiwell plate and inoculated with 10^4 cfu/ml of microorganisms. […] The liquid medium used in the test was a nutrient broth (Difco).

Another data set relates to Aspergillus niger. Described as above. To be noted: 30° C., 48 hours. Type of data set: cell-based.
Source text: as §1

The record followed here is patent US20080071005A1, “Environment-Friendly Pollution-Proof Agent” (priority 2004, published 2008).

Where two headings read alike, the source gives them in different places.

In the case of `CC(C)=CCC/C(C)=C/C=O`, the antifouling activity result in data set [1] is “excellent antifouling activity”.
The LD50 is the dose at which mortality reaches 50%. With `CC/C=C\CCOC(C)=O` [cis-3-hexenyl acetate], the LD50 in data set [2] (oral, read-out: LD50 (oral)) was more than 5000 mg/kg; in data set [2] (topical or ocular, transdermal, read-out: LD50 (transdermal)), more than 5000 mg/kg. In addition, the “solubility in organic solvent” value (organic solvent) is reported as “insoluble in organic solvent”. Moreover, the solubility in water result (water) is “insoluble in water”. Further, the antifouling activity result in data set [1] is recorded as “excellent antifouling activity”. The “inhibitory activity against the mobility of Enteromorpha spores, in words” value in the data set on Enteromorpha spores is listed as “most excellent inhibitory effect”.
`CCCCCCCCO` (single isomer, unassigned) [1-octanol]: the “death of the mice” value with mice was “no death”. The antifouling activity result in data set [1] is reported as “excellent antifouling activity”.
`CCCCCCCCCCCCCCCCCCCC(=O)O` [arachadic acid]: in the data set with mice, the “death of the mice” value was “no death”. The antifouling activity entry in data set [1] is “excellent antifouling activity”.
On to `C=CC(=C)CCC=C(C)C` [beta-myrcene], for which, in the data set with mice, the “death of the mice” value is given as “no death”. Also, the antifouling activity result in data set [1] is “excellent antifouling activity”.
On to `C=CCN=C=S` (single isomer, unassigned) [allyl isothiocyanate], for which, in the data set with mice, the “death of the mice” value is recorded as “no death”. Further, the antifouling activity result in data set [1] is given as “excellent antifouling activity”.
For the molecule methyl caporate, the “MIC Staphylococcus aureus 1:0” value in the data set with Staphylococcus aureus (ratio 1:0) stood at 4. In addition, in the data set on Staphylococcus aureus (ratio 3:1), the “MIC Staphylococcus aureus 3:1” value amounted to 5. Moreover, the “MIC Aspergillus niger 1:0” value in the data set with Aspergillus niger (ratio 1:0) is 10. Also, the “MIC Aspergillus niger 3:1” value in the data set on Aspergillus niger (ratio 3:1) worked out at 6. In addition, the “death of the mice” value in the data set with mice is given as “no death”. In addition, the antifouling activity result in data set [1] was “excellent antifouling activity”.
In the case of `C=CCc1ccc(O)c(OC)c1` [eugenol], the “death of the mice” value in the data set on mice is reported as “no death”. In data set [1], the antifouling activity result is “excellent antifouling activity”.
On to `CCCCCCC(=O)OCC` [ethyl heptanoate], for which the “death of the mice” value with mice is “no death”. Further, the antifouling activity result in data set [1] is reported as “excellent antifouling activity”.
